Tests used:
[1] = test system: Th Ser40 phosphorylation in mouse striatum slices; assay: Th Ser40 phosphorylation in mouse striatal slices ex vivo (WES automated western); type: cell-based; settings: mouse striatal slices in aCSF
Description: FIG. 13. Bay 60-7550 and Guanylin synergize to induce Ser40 phosphorylation Analysis of striatal slices treated with indicated compounds. WES data showing the phosphorylation of Th on Serine 40 is shown as well as total Th levels (a). From left to right are sequential striatal slices from rostral to caudal. Every slice is split into left and right hemisphere and either treated with compounds or vehicle. Left a positive and negative control is shown (Neuro2a cells transfected with Th or empty vector). The amount of Th Ser40 is corrected for the amount of total Th and shown in the bar graph (b). Each individual slice is indicated by a different symbol. Signficance is determined using a 2-tailed paired t-test. 2-tailed paired t-test: p=0.006.
Adult mice with an average of 5 weeks were sacrificed and the brain was quickly removed and sliced into coronal sections of 250 μm using a vibratome. Sections containing striatum were micro-dissected to remove non-striatal structures. Hemispheres were separated and one hemisphere was treated with compounds whereas the counter-hemisphere was treated with vehicle. Treatment of slices occurred in carbonized artificial cerebrospinal fluid (aCSF). After treatments, slices were lyzed in SDS containing sample buffer, sonicated, and heated at 95° C. Samples were analyzed on a WES automated western system (Protein Simple) according to manufacturer's instructions.
To investigate the effect of PDE2 inhibition in the mouse brain, an ex-vivo approach using brain slices was utilized. Coronal slices of mouse striatum were prepared and treated with BAY-60 7550 diluted in aCSF and subsequently analyzed by a WES automated western system. […] PDE2 is thus expressed in dopaminergic neurons and PDE2 protein and Th protein are present in the synaptic terminals of the neurons which project from the midbrain dopamine system to the striatum. To investigate the effects of GUCY2C ligands on Th activation, coronal slices of the mouse striatum were prepared, treated with guanylin and analyzed for Th Ser40 phosphorylation as was done for BAY-60-7550. […] The machinery for producing dopamine is thus present in the synaptic terminals where dopamine is released. […] Since both BAY 60-7550 and guanylin increased Th phosphorylation at 10μM, but not at 1 μM, we examined the effect of combining BAY 60-7750 and guanylin at 1μM.

[2] = test system: Ser40 phosphorylation of Th in MN9D cells; assay: Th Ser40 phosphorylation in MN9D cells (western blot, P-Ser40/total Th); type: cell-based
Protocol: FIG. 6. PDE2a is an important effector regulating Ser40 phosphorylation in MN9D cells. MN9D cultures were treated with IBMX or BAY-60-7550 (50 μM), a PDE2A-selective inhibitor. Cells were analyzed on western-blot for phosphorylation of Ser40 , total Th, and actin.
FIG. 7. PDE2a is an important effector regulating Ser40 phosphorylation in MN9D cells. BAY-60-7550 dose-curve and representative examples in MN9D (n=9, red) and HEK cells (n=4, blue) (Mean±SEM). Cells were treated with various concentrations of BAY 60-7750 and analyzed for Th phosphorylation on Ser40 , total Th and actin.
FIG. 10. PDE11 is an important effector regulating Ser40 phosphorylation in MN9D cells. BC 11-38 dose-curve and representative examples in MN9D (n=2) (Mean±SEM). IBMX served as a control and was used at 100 μM. Cell were analyzed for phosphorylation of Th on Ser40 and total Th was used as a loading control to determine phosphorylation specific effects.
24 hours prior to the administration of the different compounds, cells were serum-starved with DMEM medium supplemented with L-glutamine and Pen&Strep. Unless otherwise stated, the concentration of the different reagents is reported in Table 1 and the duration of the treatment was 1 hour.
Cells were harvested in 150 μL of Laemmli sample buffer (2% SDS, 10% glycerol, 60 mM Tris-Cl pH 6.8, 0.01% bromophenol blue, 50 mM freshly added DTT). Wells were duplicated in pairs and pooled into the same tubes to minimize variability. Samples were sonicated at maximum potency during 3 minutes, heated at 95° C. for 5 minutes and spun down briefly before loading. Running gels were 10% polyacrylamide except for the GUCY2C detection, which was optimal in 7% gels (375 mM Tris-Cl pH 8.8, 0.1% APS, 0.1% SDS, 0.04% TEMED). Stacking gels were 5% polyacrylamide (125 mM Tris-Cl pH 6.8, 0.1% APS, 0.1% SDS, 0.04% TEMED).
Up to 35 μL of sample was loaded in each slot and run in the presence of tris-glycine buffer and 0.1% SDS. Running conditions were 100 V during the first 20 minutes, followed by 160 V until the migration front reached the bottom of the gel. The transference was performed at 100 V onto 0.2 μm nitrocellulose membranes, in the presence of tris-glycine buffer and 20% methanol. The blotting duration was 140 minutes except for the detection of GUCY2C, which was transferred during 240 minutes in the presence of 0.1% SDS. Membranes were then submerged in Ponceau S solution to check blotting efficiency (0.1% Ponceau S, 5% acetic acid). After several washings with DEMI water, blots were incubated during 1 hour in the presence of 5% milk powder and TBS-T (154 mM NaCl, 49.5 mM Tris-Cl pH 7.4, 0.1% Tween-20). The incubation with the primary antibodies was performed O/N at 4° C. in TBS-T (consult Table 2 for dilution and species). Membranes were rinsed in TBS-T during 1 hour to remove the excess antibody. The incubation with the secondary antibodies took place during 60 minutes at room temperature (1:10,000 dilution in TBS-T, with the exception of the goat secondary which was diluted 1:20,000). Secondary antibodies were fused to the horseradish peroxidase and raised against the host species of the primary antibody. After additional washings during 1 hour, blots were exposed to an enhanced chemiluminescence solution and the signal was detected using an Odyssey imager (LI-COR). Band densitometry was performed with LI-COR Image Studio Lite. For graph quantifications, ‘Fold Change’ represents the ratio P-Ser40/Total Th. Statistical comparisons between pair of groups correspond to unpaired Student's t-tests, as calculated with GraphPad Prism. Asterisks denote the following p-values: *<0.05, **<0.01, ***<0.001, ****<0.0001.
IBMX is a non-selective PDE inhibitor, therefore we investigated the effect of inhibiting a specific PDE selectively on Ser40 phosphorylation. To study the effect of PDE2A inhibition on Ser40 phosphorylation we treated the dopaminergic cell-line MN9D with Bay BAY-60-7550 and analyzed the effects. […]

Molecule | Ser40 phosphorylation in striatal slices ([1]; 1 μM) | Ser40 phosphorylation in striatal slices ([1]; 10 μM) | increase in the phosphorylation of Ser40 ([2]; 50 μM) | performance versus IBMX on Ser40 phosphorylation ([2]; IBMX 100 μM as control) | phosphorylation of Th on Ser40 as compared to total Th (in words) ([2]; dose-curve) | IC50 ([2]; n=9, read-out: IC50 in the dopaminergic model (dose-curve of Th Ser40 phosphorylation))
COc1ccc(Cc2nn3c([C@@H](CCCc4ccccc4)[C@@H](C)O)nc(C)c3c(=O)[nH]2)cc1OC [BAY 60-7550] | did not result in a significant increase | increase in Ser40 phosphorylation | more than 4 fold | performed better than IBMX | clear fold change increase in Ser40 phosphorylation | 1000 nM
guanylin: natural agonistic ligand of GUCY2C, 15 amino acid polypeptide; commercially available rat/mouse guanylin (Chemcruz) (PNTCEICAYAACTGC) [reference compound] | did not result in a significant increase | increase in Ser40 phosphorylation |  |  |  | 

Reference: patent publication US20210330736A1 (UNIVERSITEIT VAN AMSTERDAM, priority 2018, published 2021)
